Experimental data from patent US20100029724A1, “SCREENING METHOD” (Takeda Pharmaceutical Company Limited, priority 2006, published 2010).

Key:
[1] = tested on: cytochrome c oxidase activity of high glucose-treated HepG2 cell; test: Cytochrome c oxidase activity in high glucose treated HepG2 cell; format: cell-based, human; conditions: compound 3 μM, 3 days, high glucose (4.5 g/L) HepG2, mean±SD, n=4
Experimental: (1) Human liver cancer cell-derived cell line HepG2 was passaged in low glucose (1 g/L) Eagle Modified Dulbecco's Medium supplemented with 10% fetal bovine serum. The cells adjusted to 3×10^5/mL using the same medium were plated on a 96 well plate and precultured overnight. The aforementioned medium was changed to high glucose (4.5 g/L) Eagle Modified Dulbecco's Medium supplemented with 5 μg/mL transferrin, compound (a) or compound (l) was added and the cell culture was continued for 3 days. The same experiment was performed without using compound (a) and compound (l) as the control group. […] (3) The DNA content was measured using PicoGreen dsDNA Quantitation Kit (Molecular Probes P-7589), and used as an index of cell number. The cytochrome c oxidase activity was determined using the Cytochrome c oxidase Assay kit (Sigma CYTOC-OX1) modified to fit a 96 well plate protocol. […] The time-course changes in the absorbance were measured by determining the absorbance at 550 nm at a delta soft kinetic mode once in 15 sec for 6 min from immediately after the start of the reaction. The cytochrome c oxidase activity was calculated as an absorbance change rate in 5 min from 1 to 6 min. […]

[2] = target: T1, human recombinant ferrochelatase (Homo sapiens, UniProt P22830); test: Measurement of ferrochelatase activity (zinc-protoporphyrin IX production, fluorescence); format: biochemical; conditions: compound 3 μM, mean±SD, n=8, control group 0.377 ± 0.010
T1 construct: attached to the N terminal of the human FeCh Mature region (55th-423rd amino acid residues); Nus-Tag (N, cleaved yes); His-Tag (N, cleaved yes); made in house; host or cells: Escherichia coli BL21 (DE3)
T1 sequence (P22830 55-423): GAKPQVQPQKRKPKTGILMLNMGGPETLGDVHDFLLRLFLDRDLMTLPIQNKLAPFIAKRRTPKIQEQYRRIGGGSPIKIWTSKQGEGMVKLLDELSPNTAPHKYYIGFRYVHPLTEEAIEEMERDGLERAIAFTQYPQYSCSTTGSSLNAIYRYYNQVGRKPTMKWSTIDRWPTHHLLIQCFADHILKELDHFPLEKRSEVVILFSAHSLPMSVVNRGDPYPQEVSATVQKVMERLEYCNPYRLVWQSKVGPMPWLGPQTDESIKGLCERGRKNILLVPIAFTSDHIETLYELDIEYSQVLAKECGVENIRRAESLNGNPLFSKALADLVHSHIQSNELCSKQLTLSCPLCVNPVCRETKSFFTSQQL
Experimental: Using human FeCh gene (Invitrogen) as a template, PCR was performed using the following primer 1 (SEQ ID NO: 3) and primer 2 (SEQ ID NO: 4). Pyrobest DNA polymerase (TAKARA SHUZO CO., LTD.) was used for the PCR, and extension reactions were performed under the conditions of (1) 95° C. 1 min, then (2) 30 cycles of 96° C. 15 sec, 60° C. 30 sec, 72° C. 90 sec, then (3) 72° C. for 7 min. After the reaction, the amplification product was inserted into pCR-Blunt II-TOPO (Invitrogen) and cloned. The obtained plasmid was digested with Bgl II and Xho I to recover inserted fragments. The fragments were inserted into the Bam HI/Xho I site of pET43.1a (Novagen) to give an expression vector pET43.1a-hFeCh encoding a protein with Nus-Tag and His-Tag attached to the N terminal of the human FeCh Mature region (55th-423rd amino acid residues).
The expression vector pET43.1a-hFeCh constructed in the above-mentioned A1 was introduced into Escherichia coli BL21 (DE3) Competent Cell (Stratagene) to give an expression strain. […]
The cells obtained in the above-mentioned A2 were suspended in Blue column Buffer (10 mM Tris-HCl (pH 8.1), 0.5 M NaCl, 10% Glycerol, 1% Triton X-100, 5 mM 2-Mercaptoethanol (2-ME), 250 ml) containing Protease Cocktail (Complete, EDTA-free; Roche). […] As a result of protein quantification (CBB method; Pierce), the total protein amount of about 8 mg of human FeCh was obtained. […]

Wistar Fatty rats = test: Evaluation of anti-diabetic action in Wistar Fatty rats (glycosylated hemoglobin); format: in vivo, rat; conditions: male Wistar Fatty rats, mean±SD, n=5-6
Experimental: Lean rats in the same lot as the male Wistar Fatty rats (26 to 27-week-old; TAKEDA RABICS, lot0402) were used. Blood samples were collected from Wistar Fatty rats in the morning under non-fasting, and glycosylated hemoglobin % value (GHB %) and plasma component were measured. GHB % was measured by Tosoh automatic glycohemoglobin analyzer HLC-723 GHbV Alc2.2. The Plasma component was measured by Beckman Synchron system CX5 delta. The rats showing a GHB % value of not less than 7.5% and a high PG value were divided into 2 groups. For one group, a suspension of compound (1), obtained by suspending compound (l) in 0.5% aqueous methylcellulose solution, (dose of compound (l): 10 mg/kg body weight) was orally administered repeatedly once a day for 20 days. For the other group, 0.5% aqueous methylcellulose solution was orally administered in the same manner, and used as the control group. On the day of completion of the administration, the blood samples were collected again, and GHB % was measured. The numerical values in the Table show mean±standard deviation of n=5-6 (n is the number of rats).

ZDF rats = test: Evaluation of anti-diabetic action in ZDF rat (blood glucose level); format: in vivo; conditions: male ZDF rat at 16 weeks of age; mixed diet 0.03% compound from 8 weeks of age (dose 20.9 mg/kg body weight); mean±SD; control group 652.8±23.10
Experimental: Male ZDF rats (5-week-old, Charles River Japan) were reared while allowing free-feeding of both diet and water. As the feed, a standard laboratory diet (MF; Oriental Yeast Co, Tokyo, Japan) and a mixed diet (the aforementioned standard laboratory diet containing 0.03% of compound (a)) were used. After acclimation rearing for 1 week, the body weight and glycated hemoglobin were measured, and the ZDF rats were divided into 2 groups (8 rats/group) such that the measurement values became uniform at 8 weeks of age. For the control group, the aforementioned standard laboratory diet was given, and for the compound (a) administration group, the aforementioned mixed diet was given from 8 weeks of age to 19 weeks of age.
At 16 weeks of age, the food intake in 24 hr was measured. The rats were reared at 4 rats/cage, the total amount of decrease in the diet in a can set to each cage was divided by 4 and taken as the daily food intake per rat. In addition, the dose of compound (a) was calculated from the food intake and the content of compound (a) in the mixed diet.
At 16 weeks of age, moreover, the blood was drawn from the rat tail vein using heparin as an anticoagulant. The blood sample was preserved on ice, and the plasma after centrifugation was preserved at −20° C. until measurement. The blood glucose level was measured by a biochemical automatic analyzer (Beckman Coulter, Shyncron CX5Δ).

Crj: CD(SD)IGS rats = test: Evaluation of hemoglobin increasing action; format: in vivo, rat; conditions: female Crj: CD(SD)IGS rats, 600 mg/kg/day oral, 4 weeks, mean±SD
Experimental: (1) After acclimation rearing for 1 week, female Crj: CD(SD)IGS rats (5-week-old) were divided into 2 groups (10 rats/group). (2) For one group, a suspension of compound (a), obtained by suspending compound (a) in 0.5% aqueous methylcellulose solution, was orally administered at 10 ml/kg body weight/day (dose of compound (a): 600 mg/kg body weight/day) once a day. For the other group, 0.5% aqueous methylcellulose solution was orally administered at 10 ml/kg body weight/day in the same manner, and used as the control group. (3) After 4-week administration under free-feeding conditions, the rats were fasted for 20 hr, and the whole blood was collected from the abdominal artery into a blood collection vessel (SP-U0501EM, Sekisui Chemical), and the red blood cell count, hematocrit, hemoglobin concentration, and MCH (average red blood cell hemoglobin) of the rat blood were measured. The numerical values in the Table show mean±standard deviation.

SMILES | Cytochrome c oxidase activity ([1]; Table 6, control group 0.743 ± 0.043) | ferrochelatase activity [2] [Em 590 nm] | Glycosylated hemoglobin value, after drug administration (Wistar Fatty rats; 10 mg/kg oral once a day for 20 days, control group 7.7 ± 0.2) [%] | Glycosylated hemoglobin value, amount of change (Wistar Fatty rats; 10 mg/kg oral once a day for 20 days, control group −0.5 ± 0.2) [%] | Glycosylated hemoglobin value, before drug administration (Wistar Fatty rats; baseline before 10 mg/kg oral once a day for 20 days) [%] | Cytochrome c oxidase activity ([1]; Table 5, control group 0.649 ± 0.044) [units/μg DNA] | blood glucose level (ZDF rats) [mg/dL] | hemoglobin (Crj: CD(SD)IGS rats; control group 15.3 ± 0.4) [g/dL] | MCH (average red blood cell hemoglobin) (Crj: CD(SD)IGS rats; control group 19.6 ± 0.4) [pg] | hematocrit (Crj: CD(SD)IGS rats; control group 42.5 ± 1.1) [%] | red blood cell count (Crj: CD(SD)IGS rats; control group 777 ± 21)
Cn1ncc(/C=C/C(=O)Nc2ccc(CCc3nnco3)cc2)c1-c1ccc(F)cc1 [compound (l), (2E)-3-[5-(4-fluorophenyl)-1-methyl-1H-pyrazol-4-yl]-N-{4-[2-(1,3,4-oxadiazol-2-yl)ethyl]phenyl}acrylamide] | 0.990 ± 0.088 units/(μg DNA | 0.655 ± 0.009 | 6.9 ± 0.4 | −1.3 ± 0.3 | 8.2 ± 0.5 | – | – | – | – | – | –
CCOP(=O)(OCC)OCc1ccc(NC(=O)/C=C/c2cnn(C)c2-c2ccc(F)cc2)cc1 [compound (a), diethyl [4-({(2E)-3-[5-(4-fluorophenyl)-1-methyl-1H-pyrazol-4-yl]prop-2-enoyl}amino)benzyl]phosphate] | – | 0.609 ± 0.008 | – | – | – | 0.757 ± 0.029 | 271.7 ± 36.5 | 16.1 ± 0.7 | 20.7 ± 0.5 | 44.7 ± 1.9 | 779 ± 32 ×10^4/μl
